Data on three compounds can be found in EP4168403B1 (priority 2020, dated 2021).

Test [1] in a line: Oxygen Radical Absorbance Capacity (ORAC-FL) assay. Conditions: Trolox equivalents (µmol of Trolox equivalent/µmol of compound). As to the method:
The radical scavenging capacity of the TFAHs was determined by the ORAC-FL method using fluorescein as a fluorescent probe^33,34. (±)-6-Hydroxy-2,5,7,8-tetramethylchromane-2-carboxylic acid (Trolox), fluorescein (FL) and 2,2'-azobis(amidinopropane) dihydrochloride (AAPH) were purchased from Sigma-Aldrich. A Varioskan Flash plate reader with built-in injectors (Thermo Scientific) was used. The reaction was carried out at 37 °C in 75 mM phosphate buffer (pH= 7.4), and the final volume reaction mixture was 200 µL. The tested compounds and Trolox standard were dissolved in DMSO to 10 mM and further diluted in 75 mM phosphate buffer (pH= 7.4). The final concentrations were 0.1-1 µM for the tested compounds and 1-8 µM for Trolox standard. The blank was composed of 120 µL of FL, 60 µL of AAPH and 20 µL of phosphate buffer (pH=7.4) and was added in each assay.
The net AUC corresponding to a sample was calculated as follows: Net AUC = AUCantioxidant −AUCblank . [formula]
Regression equations were calculated by plotting the net AUC against the antioxidant concentration. The ORAC value was obtained by dividing the slope of the latter curve between the slope of the Trolox curve obtained in the same assay. Final ORAC values were expressed as µmol of Trolox equivalent/µmol of TFAH.

In test [2] the target is T1, Aβ1-42 (Homo sapiens, UniProt P05067).
T1 construct: pre-treated Aβ1-42 samples (Bachem AG, Switzerland); purchased Bachem AG, Switzerland
Put plainly: Inhibition of Aβ1-42 self-aggregation (ThT fluorescence). In kind it is biochemical. Conditions: [Inhibitor]=[Aβ1-42]=50 µM, mean ± SEM. As to the method: Experiments were performed by incubating the peptide in 10 mM phosphate buffer (pH=8.0) containing 10 mM NaCl, at 30 °C for 24 h (final Aβ concentration=50 µM with and without inhibitor (50 µM). The inhibitor was dissolved in methanol and diluted in the assay buffer. Blanks containing inhibitor and ThT were also prepared and evaluated to account for quenching and fluorescence properties. To quantify amyloid fibril formation, the ThT fluorescence method was used^36, 37. After incubation, samples were diluted to a final volume of 2.0 mL with […] glycine-NaOH buffer (pH= 8.5) containing 1.5 µM ThT. A 300-seconds-time scan of fluorescence intensity was carried out (λexc=446 nm; λem=490 nm), and values at plateau were averaged after subtracting the background fluorescence of 1.5 µM ThT solution. The fluorescence intensities were compared and the % inhibition was calculated.
The inhibitory activity of compounds BIGI-3e, BIGI-3h and BIGI-3k against the spontaneous aggregation of Aβ1-42 was determined in vitro using a thioflavin T (ThT)-based fluorometric assay^35. […].

Test [3] concerns voltage-gated Ca^2+ channels (VGCC). Put plainly: Calcium channel antagonist assay (K+-evoked cytosolic Ca2+, Fluo-4). The test is classed as cell-based. Conditions: SH-SY5Y cells, K+ 70 mM, mean ± SEM, read-out: IC50 (µM) Calcium channels blockade. As to the method:
The cytosolic Ca^2+ has been measured in SH-SY5Y cells. SH-SY5Y cells were maintained similarly to what was previously described^30. Free cytosolic Ca^2+ was measured using the fluorescent Ca^2+ indicator Fluo-4/AM (Fluo-4 acetomethoxyester). SH-SY5Y cells were seeded onto 96-well black plates at a density of 10^5 cells per well, achieving confluence after 48 h. Cells were washed with Krebs-Hepes solution (KH, in mM: 144 NaCl, 5.9 KCl, 1.2 MgCl2, 2 CaCl2, 11 D-glucose, 10 HEPES, pH 7.4). Cells were loaded with 10 µM Fluo-4/AM and 0.2% pluronic acid in KH and incubated for 45 min at 37 °C in the dark. Then, cells were washed twice with KH to remove the excess of probe. Tested compounds were incubated 10 min before K+ 70 mM was applied to evoke the increment of cytosolic Ca^2+. To normalize Fluo-4 signals, Triton X-100 (5%) and 1 M MnCl2 were applied to register both maximal and minimal fluorescence, respectively. The experiments were analyzed at excitation and emission wavelengths of 485 and 520 nm, respectively, and fluorescence was measured in a fluorescence microplate reader (FLUOstar Optima, BMG, Germany). Data were calculated as a percentage of Fmax - Fmin.
The blocking effect of the depolarization-induced Ca^2+ uptake was investigated in SH-SY5Y neuroblastoma cells stimulated with an extracellular concentration of K+ 70 mM, which induces the cell Ca^2+ levels elevation by opening voltage-gated Ca^2+ channels (VGCC), monitored with the Ca^2+-sensitive fluorescent dye Fluo-4. Nifedipine was used as positive standard.

Test [4] addresses T2, human recombinant butyrylcholinesterase (hBuChE; EC 3.1.1.8) (Homo sapiens, UniProt P06276).
T2 construct: purchased Sigma-Aldrich (Prague, Czech Republic)
Put plainly: Cholinesterase inhibition in vitro assay (modified Ellman's method), BuChE. In kind it is biochemical. Conditions: pH 7.4, 37 °C, mean ± SEM, read-out: BChE (IC50 µM). The method, then:
The AChE and BuChE inhibitory activity of the tested compounds was determined using a modified Ellman's method^31, 32.Human red-blood cell acetylcholinesterase (hAChE; EC 3.1.1.7), and human recombinant butyrylcholinesterase (hBuChE; EC 3.1.1.8), 5,5'-dithiobis(2-nitrobenzoic acid) (Ellman's reagent, DTNB), phosphate buffer (PB, pH 7.4), acetylthiocholine (ATC), and butyrylthiocholine (BTC), were purchased from Sigma-Aldrich (Prague, Czech Republic). Nunc polystyrene 96-well microplates with flat-bottom shape (ThermoFisher Scientific, USA) were used for the measurement and all the assay were carried out in 0.1 M KH2PO4/K2HPO4 buffer, pH 7.4. Enzyme solution was prepared at activity 2.0 units/mL in 2 mL aliquots. The assay mixture (100 µL) consisted of 40 µL of 0.1 M phosphate buffer (pH 7.4), 20 µL of 0.01 M DTNB, 10 µL of enzyme, and 20 µL of 0.01 M substrate (ATC iodide solution). Tested compounds were dissolved first in methanol (BIGI 23 in DMSO) and then further diluted by assay buffer to the final concentration. […]. […] Enzyme with the inhibitor was preincubated for 5 min in the assay mixture and then the reaction was started by addition of 20 µL of substrate (ATC for AChE, BTC for BuChE). The enzyme activity was determined by measuring the increase in absorbance at 412 nm at 37 °C at 2 min intervals using a Multi-mode microplate reader Synergy 2 (Vermont, USA). Each concentration was assayed in triplicate. The obtained data were used to compute the percentage inhibition (I; Equation 1): I = 1−(ΔAi)/(ΔA0) [%] [formula] ΔAi indicates the absorbance change provided by cholinesterase exposed to AChE inhibitors and ΔA0 indicates absorbance change caused by intact cholinesterase (phosphate buffer was used instead of AChE inhibitor solution). […] Calculations were performed using software Microsoft Excel (Redmont, WA, USA) and GraphPad Prism version 5.02 for Windows, GraphPad Software, San Diego, CA, USA.
On the technique in general: DTNB colorimetry detects thiols as they appear.

T1 sequence (P05067 672-713 limits assumed): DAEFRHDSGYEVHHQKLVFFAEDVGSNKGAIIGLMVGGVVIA
T2 sequence (P06276 29-602): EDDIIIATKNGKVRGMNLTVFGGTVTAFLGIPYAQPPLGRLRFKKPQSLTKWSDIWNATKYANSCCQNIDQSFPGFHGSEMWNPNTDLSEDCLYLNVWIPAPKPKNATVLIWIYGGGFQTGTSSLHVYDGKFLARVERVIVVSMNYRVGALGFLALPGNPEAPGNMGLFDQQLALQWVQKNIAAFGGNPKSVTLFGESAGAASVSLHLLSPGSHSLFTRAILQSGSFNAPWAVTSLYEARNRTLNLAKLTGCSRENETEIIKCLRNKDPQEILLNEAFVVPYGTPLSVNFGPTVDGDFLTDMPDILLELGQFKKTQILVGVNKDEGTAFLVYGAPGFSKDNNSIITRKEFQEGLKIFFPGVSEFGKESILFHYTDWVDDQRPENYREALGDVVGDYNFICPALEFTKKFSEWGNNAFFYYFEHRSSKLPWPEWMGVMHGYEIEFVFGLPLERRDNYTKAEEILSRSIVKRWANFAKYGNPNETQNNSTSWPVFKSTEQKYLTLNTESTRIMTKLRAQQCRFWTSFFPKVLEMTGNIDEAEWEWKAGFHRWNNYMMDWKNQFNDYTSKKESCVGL

For `CCOC(=O)C1=C(C)N(CCC2CCN(Cc3ccccc3)CC2)C(=O)NC1c1coc2c(Cl)cc(Cl)cc2c1=O` (racemic) [BIGI-3h, ethyl 1-(2-(1-benzylpiperidin-4-yl)ethyl)-4-(6,8-dichloro-4-oxo-4H-chromen-3-yl)-6-methyl-2-oxo-1,2,3,4-tetrahydropyrimidine-5-carboxylate], the ORAC in test [1] was found to be 3.65± 0.07 TE. Besides, in test [2], 50 µM produced 66 ± 0.7% inhibition. The “% inhibition Aβ1-42 aggregation” value in test [2] (50 µM) is 63.6 ± 1.3%. Besides, the IC50 (commonly the concentration that inhibits the measured activity by half) in test [3] was determined as 1.4 ± 0.4 µM; in test [4], 17.3 ± 0.9 µM.

Take `CCOC(=O)C1=C(C)N(CCC2CCN(Cc3ccccc3)CC2)C(=O)NC1c1coc2ccc(Br)cc2c1=O` (stereo not shown) [BIGI-3e, ethyl 1-(2-(1-benzylpiperidin-4-yl)ethyl)-4-(6-bromo-4-oxo-4H-chromen-3-yl)-6-methyl-2-oxo-1,2,3,4-tetrahydropyrimidine-5-carboxylate]: the ORAC in test [1] was 3.26 ± 0.12 TE. 50 µM produced 63 ± 2.1% inhibition in test [2]. For the same compound, the IC50 was 1.9 ± 0.6 µM in test [3] and 8.4 ± 0.34 µM in test [4].

Turning to `CCOC(=O)C1=C(C)N(CCCC2CCN(Cc3ccccc3)CC2)C(=O)NC1c1coc2cc(CC)ccc2c1=O` (stereo not shown) [BIGI-3k, ethyl 1-(3-(1-benzylpiperidin-4-yl)propyl)-4-(7-ethyl-4-oxo-4H-chromen-3-yl)-6-methyl-2-oxo-1,2,3,4-tetrahydropyrimidine-5-carboxylate], the ORAC in test [1] came to 2.75 ± 0.16 TE. Besides, in test [2], the inhibition (usually how much of the control response was suppressed) at 50 µM turned out to be 63.8 ± 0.8%. In addition, the results for the IC50 in test [3] and in test [4] were 1.4 ± 0.5 µM and 2.95 µM, respectively.
